Calls of active or inactive are those of the source. The calls are words filed in the database; no cut-off is given here.
Columns and labels:
Staphylococcus aureus [1] = test: Antibacterial activity against compound-resistant/methicillin-resistant Staphylococcus aureus assessed as inhibition of bacterial growth; assay type: functional
Bacillus subtilis = test: Antibacterial activity against Bacillus subtilis ATCC 6633 assessed as inhibition of bacterial growth measured after 24 hrs by MH broth based assay; assay type: functional
Proteus = test: Antibacterial activity against Proteus CMCC (B) 49027 assessed as inhibition of bacterial growth measured after 24 hrs by MH broth based assay; assay type: functional
Staphylococcus aureus [2] = test: Antibacterial activity against Staphylococcus aureus ATCC 29213 assessed as induction of cell membrane perforation at 4 times of MIC by SEM analysis; assay type: functional, organism-based
Klebsiella pneumoniae = test: Antibacterial activity against clinical isolate Klebsiella pneumoniae harbouring blaKpc gene assessed as inhibition of bacterial growth measured after 24 hrs by MH broth based assay; assay type: functional
Streptococcus parasuis = test: Antibacterial activity against clinical isolate Streptococcus parasuis harbouring optrA gene assessed as inhibition of bacterial growth measured after 24 hrs by MH broth based assay; assay type: functional
Escherichia coli = test: Antibacterial activity against clinical isolate Escherichia coli harbouring NDM-17 gene assessed as inhibition of bacterial growth measured after 24 hrs by MH broth based assay; assay type: functional
Staphylococcus aureus [3] = test: Antibacterial activity against clinical isolate Staphylococcus aureus harbouring IsaE gene assessed as inhibition of bacterial growth measured after 24 hrs by MH broth based assay; assay type: functional
Staphylococcus aureus [4] = test: Antibacterial activity against methicillin-resistant Staphylococcus aureus infected in rabbit RBC assessed as reduction in haemolysis by measuring haemoglobin level at 0.25 to 1 times of MIC by absorbance based analysis; assay type: functional, organism-based; conditions: Erythrocyte
Staphylococcus aureus [5] = test: Antibacterial activity against multi-drug resistant Staphylococcus aureus sa1 infected in BABL/C mouse assessed as survival rate at 10 mg/kg, ip measured upto 7 days; assay type: functional; conditions: sa1, 168 h, time <= 7 day
[6] = Hemolytic activity in rabbit RBC at 200 ug/ml incubated for 5 mins by absorbance based analysis; assay type: toxicity, cell-based, Oryctolagus cuniculus, Erythrocyte; conditions: rabbit red blood cells (erythrocytes), at 200 µg/mL, read-out: Activity
Staphylococcus aureus [7] = test: Antibacterial activity against clinical isolate Staphylococcus aureus harbouring tet38 gene assessed as inhibition of bacterial growth measured after 24 hrs by MH broth based assay; assay type: functional
Staphylococcus aureus [8] = test: Antibacterial activity against methicillin-resistant Staphylococcus aureus […] assessed as post antibacterial effect by measuring time required for increase in log10 CFU/ml of bacteria at 4 times of MIC incubated for 1 hr by MH broth based assay; assay type: functional
Staphylococcus aureus [9] = test: Antibacterial activity against multi-drug resistant Staphylococcus aureus sa1 infected in BABL/C mouse assessed as reduction in bacterial load in lungs at 20 mg/kg, ip measured after 2 days; assay type: functional; conditions: time 2 day
Streptococcus suis = test: Antibacterial activity against clinical isolate Streptococcus suis harbouring IsaE and ErmA gene assessed as inhibition of bacterial growth measured after 24 hrs by MH broth based assay; assay type: functional
Staphylococcus aureus [10] = test: Antibacterial activity against 2 times of MIC treated methicillin-resistant Staphylococcus aureus […] assessed as post-antibiotic sub-MIC effect by measuring time required for increase in log10 CFU/ml of bacteria at 0.25 to 0.5 times of MIC incubated for 1 hr by MH broth based assay; assay type: functional
[11] = Toxicity in BABL/C mouse assessed as survival rate at 631 mg/kg, po measured upto 14 days; assay type: organism-based; conditions: in vivo, time < 14 day
Staphylococcus aureus [12] = test: Antibacterial activity against methicillin-resistant Staphylococcus aureus […] assessed as post antibacterial effect by measuring time required for increase in log10 CFU/ml of bacteria at 2 times of MIC incubated for 1 hr by MH broth based assay; assay type: functional
Streptococcus pneumoniae = test: Antibacterial activity against clinical isolate Streptococcus pneumoniae harbouring ermB gene assessed as inhibition of bacterial growth measured after 24 hrs by MH broth based assay; assay type: functional
Staphylococcus aureus [13] = test: Potency index, ratio of tiamulin MIC to compound […] for antibacterial activity against clinical isolate multi-drug resistant Staphylococcus aureus sal; assay type: functional
Staphylococcus aureus [14] = test: Antibacterial activity against clinical isolate multi-drug resistant Staphylococcus aureus sal assessed as inhibition of bacterial growth; assay type: functional
Staphylococcus aureus [15] = test: Antibacterial activity against Staphylococcus aureus ATCC 29213 assessed as inhibition of bacterial GFP expression at 1 to 4 times of MIC incubated for 1 hr by fluorescence microscopic analysis; assay type: functional, organism-based
Staphylococcus aureus [16] = test: Antibacterial activity against Staphylococcus aureus ATCC 29213 assessed as induction of bacterial fragmentation at 1 times of MIC by SEM analysis; assay type: functional, organism-based

In the case of C=C[C@]1(C)C[C@@H](OC(=O)CSc2cc[n+](CCCCCCC)cc2)[C@]2(C)[C@H](C)CC[C@]3(CCC(=O)[C@H]32)[C@@H](C)[C@@H]1O.[I-], the MIC (Staphylococcus aureus [1]) was 0.5 µg/mL, the MIC (Bacillus subtilis) was 4 µg/mL and the MIC (Proteus) was 32 µg/mL. For the same molecule, the Activity (Staphylococcus aureus [2]) was “Active”, the MIC (Klebsiella pneumoniae) was 4 µg/mL and the MIC (Streptococcus parasuis) was 16 µg/mL. For the same molecule, the MIC (Escherichia coli) was 16 µg/mL, the MIC (Staphylococcus aureus [3]) was 8 µg/mL and the Activity (Staphylococcus aureus [4]) was “Active”. The survival at 10 mg/kg (Staphylococcus aureus [5]) was 66%, the hemolysis at 5 min, 200 ug/ml [6] was < 14% and the MIC (Staphylococcus aureus [7]) was 0.125 µg/mL. It also gave a Time (Staphylococcus aureus [8]) of 2.56 h, an Activity (Staphylococcus aureus [9]) of 3.29 log10CFU/ml and an MIC (Streptococcus suis) of 16 µg/mL. For the same molecule, the Time (Staphylococcus aureus [10]) was 2.62 h, the survival at 336 h [11] was 80% and the Time (Staphylococcus aureus [12]) was 2.31 h. It also gave an MIC (Streptococcus pneumoniae) of 0.5 µg/mL, a Ratio (Staphylococcus aureus [13]) of 96 and an MIC (Staphylococcus aureus [14]) of 8 µg/mL. The Activity (Staphylococcus aureus [15]) was “Active” and the Activity (Staphylococcus aureus [16]) was “Active”.

Source: ChEMBL document CHEMBL5346923, “Novel pyridinium cationic pleuromutilin analogues overcoming bacterial multidrug resistance” (Eur J Med Chem, 2023)
